Experimental data reported in patent publication US10544140B2, “Pharmaceutical composition containing, as active ingredient, 7-azaindolin-2-one derivative or pharmaceutically acceptable salt thereof” (LG CHEM, LTD., priority 2015, dated 2020).
Read-outs that look alike come from different tables or passages of the source.

Assays:
[1] = system: PANC-1 (human pancreatic cancer cell line); assay: Cytotoxicity test by MTT assay, PANC-1; assay type: cell-based; details: for cytotoxicity at 30 µM: read-out: Cell viability (% inhibition)
Procedure: (§1) A cytotoxicity test was measured by MTT assay. Each cell line was cultured in a 96-well plate at a density of 1×10^4 cells/well. […] MTT (3-(4,5-dimethylthiazol-2-yl)-2,5-diphenyltetrazolium bromide) solution (5 mg/mL) was added to each well and reacted for 4 hours in an incubator. […] After reacting in an incubator for 30 minutes, the formation of formazan was quantified using a microplate reader at an absorbance of 540 nm. […] At this time, sunitinib was used as a control group. […] The human cancer cell lines used herein are MCF-7 (breast cancer), MDA-MB-231 (breast cancer), HT-29 (colon cancer), DU145 (prostate cancer), U937 (myeloid leukemia), A549 (lung cancer), PANC-1 (pancreatic cancer) and MIA PaCa-2 (pancreatic cancer).

[2] = system: MCF-7 (human breast cancer cell line); assay: Cytotoxicity test by MTT assay, MCF-7; assay type: cell-based; details: Homo sapiens; for cytotoxicity at 30 µM: read-out: Cell viability (% inhibition); for IC50: MCF-7, 48 h
Procedure: as §1

A549 (lung cancer) = assay: Cytotoxicity test by MTT assay, A549; assay type: cell-based, human; details: for IC50: Homo sapiens, A549, 48 h
Procedure: (§2) A cytotoxicity test was measured by MTT assay. Each cell line was cultured in a 96-well plate at a density of 1×10^4 cells/well. After 24 hours, the culture medium containing 1% FBS (fetal bovine serum) was treated and reacted with compounds or solutions of compounds for 48 hours. MTT (3-(4,5-dimethylthiazol-2-yl)-2,5-diphenyltetrazolium bromide) solution (5 mg/mL) was added to each well and reacted for 4 hours in an incubator. […] After reacting in an incubator for 30 minutes, the formation of formazan was quantified using a microplate reader at an absorbance of 540 nm. […] The human cancer cell lines used herein are MCF-7 (breast cancer), MDA-MB-231 (breast cancer), HT-29 (colon cancer), DU145 (prostate cancer), U937 (myeloid leukemia), A549 (lung cancer), PANC-1 (pancreatic cancer) and MIA PaCa-2 (pancreatic cancer).

HT-29 (colon cancer) = assay: Cytotoxicity test by MTT assay, HT-29; assay type: cell-based, human; details: for IC50: Homo sapiens, HT-29, 48 h
Procedure: as §2

[3] = system: MDA-MB-231 (breast cancer); assay: Cytotoxicity test by MTT assay, MDA-MB-231; assay type: cell-based, human; details: for IC50: Homo sapiens, MBA-MB-231, 48 h
Procedure: as §2

[4] = Cytotoxicity test by MTT assay, HEK293 normal cell line; assay type: cell-based; details: human, HEK293 cells (normal cell line)
Procedure: (§3) A cytotoxicity test was measured by MTT assay. Each cell line was cultured in a 96-well plate at a density of 1×10^4 cells/well. After 24 hours, the culture medium containing 1% FBS (fetal bovine serum) was treated and reacted with compounds or solutions of compounds for 48 hours. MTT (3-(4,5-dimethylthiazol-2-yl)-2,5-diphenyltetrazolium bromide) solution (5 mg/mL) was added to each well and reacted for 4 hours in an incubator. […] After reacting in an incubator for 30 minutes, the formation of formazan was quantified using a microplate reader at an absorbance of 540 nm.

DU145 (prostate cancer) = assay: Cytotoxicity test by MTT assay, DU145; assay type: cell-based, human; details: DU-145; for IC50: Homo sapiens, DU145, 48 h
Procedure: as §2

U937 (myeloid leukemia) = assay: Cytotoxicity test by MTT assay, U937; assay type: cell-based, human; details: for IC50: Homo sapiens, U-937, U937, 48 h
Procedure: as §2

[5] = Cytotoxicity test by MTT assay, CHO-K1 normal cell line; assay type: cell-based; details: Chinese hamster, CHO-K1 cells (normal cell line)
Procedure: as §3

[6] = Homo sapiens, PANC-1, 30 μM, 48 h

| SMILES | cytotoxicity at 30 µM [1, 6] | cytotoxicity at 30 µM ([2]; MCF7, MCF-7, 30 μM, 48 h) | IC50 (A549 (lung cancer)) | IC50 (HT-29 (colon cancer)) | IC50 [3] | IC50 at 48 h [4] | IC50 (U937 (myeloid leukemia)) | IC50 at 48 h [5] | IC50 ([2]; MCF7) | also measured |
| --- | --- | --- | --- | --- | --- | --- | --- | --- | --- | --- |
| Cc1nc2c(c(C)c1O)/C(=C/c1ccc3ccccc3c1)C(=O)N2 [Compound I-20, (Z)-5-Hydroxy-4,6-dimethyl-3-(naphthalen-2-ylmethylene)-1H-pyrrolo[2,3-b]pyridin-2(3H)-one] | 28.9% | 30.5% | – | – | – | – | – | – | – | – |
| Cc1nc2c(c(C)c1O)/C(=C/c1ccccn1)C(=O)N2 [Compound I-21, (Z)-5-Hydroxy-4,6-dimethyl-3-(pyridin-2-ylmethylene)-1H-pyrrolo[2,3-b]pyridin-2(3H)-one] | 29.2% | 28.1% | – | – | – | – | – | – | – | – |
| Cc1nc2c(c(C)c1O)/C(=C/c1ccc3ccccc3n1)C(=O)N2 [Compound I-24, (Z)-5-Hydroxy-4,6-dimethyl-3-(quinolin-2-ylmethylene)-1H-pyrrolo[2,3-b]pyridin-2(3H)-one] | – | – | 4.2 µM | 4.57 µM | 2.81 µM | 46.8 µM | 6.67 µM | – | – | cytotoxicity compared with the reference drug sunitinib (A549 (lung cancer); A-549): greater than or equal to that of the reference drug sunitinib; cytotoxicity compared with the reference drug sunitinib (HT-29 (colon cancer); HT-29): greater than or equal to that of the reference drug sunitinib; cytotoxicity compared with the reference drug sunitinib [3]: greater than or equal to that of the reference drug sunitinib; cytotoxicity compared with the reference drug sunitinib (DU145 (prostate cancer)): greater than or equal to that of the reference drug sunitinib; IC50 (DU145 (prostate cancer)): 1.07 µM; cytotoxicity compared with the reference drug sunitinib (U937 (myeloid leukemia); U937): greater than or equal to that of the reference drug sunitinib |
| Cc1nc2c(c(C)c1O)/C(=C/c1cccc3[nH]ccc13)C(=O)N2 [Compound I-25, (Z)-3-((1H-Indol-4-yl)methylene)-5-hydroxy-4,6-dimethyl-1H-pyrrolo[2,3-b]pyridin-2(3H)-one] | 32.3% | 14.5% | – | – | – | – | – | – | – | – |
| Cc1nc2c(c(C)c1O)/C(=C/c1c[nH]c3ccccc13)C(=O)N2 [Compound I-26, (Z)-3-((1H-Indol-3-yl)methylene)-5-hydroxy-4,6-dimethyl-1H-pyrrolo[2,3-b]pyridin-2(3H)-one] | 17.1% | 2.4% | – | – | – | – | – | – | – | – |
| Cc1nc2c(c(C)c1O)/C(=C/c1ccco1)C(=O)N2 [Compound I-27, (Z)-3-(Furan-2-ylmethylene)-5-hydroxy-4,6-dimethyl-1H-pyrrolo[2,3-b]pyridin-2(3H)-one] | 16.4% | 31.5% | – | – | – | – | – | – | – | – |
| Cc1nc2c(c(C)c1O)/C(=C/c1cccs1)C(=O)N2 [Compound I-29, (Z)-5-Hydroxy-4,6-dimethyl-3-(thiophen-2-ylmethylene)-1H-pyrrolo[2,3-b]pyridin-2(3H)-one] | 42.2% | 57.8% | – | – | – | – | – | – | – | – |
| Cc1ccsc1/C=C1\C(=O)Nc2nc(C)c(O)c(C)c21 [Compound I-30, (Z)-5-Hydroxy-4,6-dimethyl-3-((3-methylthiophen-2-yl)methylene)-1H-pyrrolo[2,3-b]pyridin-2(3H)-one] | 47.2% | 59% | – | – | – | – | – | – | – | – |
| Cc1nc2c(c(C)c1O)/C(=C/c1ncc[nH]1)C(=O)N2 [Compound I-33, (Z)-3-((1H-Imidazol-2-yl)methylene)-5-hydroxy-4,6-dimethyl-1H-pyrrolo[2,3-b]pyridin-2(3H)-one] | 7.2% | 2.6% | – | – | – | – | – | – | – | – |
| Cc1nc2c(c(C)c1O)/C(=C/c1c[nH]cn1)C(=O)N2 [Compound I-34, (Z)-3-((1H-Imidazol-4-yl)methylene)-5-hydroxy-4,6-dimethyl-1H-pyrrolo[2,3-b]pyridin-2(3H)-one] | – | – | – | – | – | – | – | – | – | cytotoxicity at 30 µM ([1]; Homo sapiens, PANC-1, 48 h): 4.5%; cytotoxicity at 30 µM ([2]; MCF7, 48 h): 4.1% |
| Cc1nc2c(c(C)c1O)/C(=C/c1nccs1)C(=O)N2 [Compound I-35, (Z)-5-Hydroxy-4,6-dimethyl-3-(thiazol-2-ylmethylene)-1H-pyrrolo[2,3-b]pyridin-2(3H)-one] | 9% | 5.6% | – | – | – | – | – | – | – | – |
| Cc1cc(C)c(/C=C2\C(=O)Nc3nc(C)c(O)c(C)c32)[nH]1 [Compound I-36, (Z)-3-((3,5-Dimethyl-1H-pyrrol-2-yl)methylene)-5-hydroxy-4,6-dimethyl-1H-pyrrolo[2,3-b]pyridin-2(3H)-one] | 44.7% | 47.3% | 13.9 µM | 16.6 µM | 10.2 µM | > 90 µM | 33.9 µM | 50.1 µM | 31.6 µM | – |
| Cc1nc2c(c(C)c1O)/C(=C/c1[nH]c(C)c(C(=O)O)c1C)C(=O)N2 [Compound I-37, (Z)-5-((5-Hydroxy-4,6-dimethyl-2-oxo-1H-pyrrolo[2,3-b]pyridin-3(2H)-ylidene)methyl)-2,4-dimethyl-1H-pyrrole-3-carboxylic acid] | 55.8% | 60.4% | 19.9 µM | 26.2 µM | 19.5 µM | 38 µM | 14.8 µM | 33.1 µM | 14.8 µM | – |
| CCOC(=O)c1c(C)[nH]c(/C=C2\C(=O)Nc3nc(C)c(O)c(C)c32)c1C [Compound I-38, (Z)-Ethyl-5-((5-hydroxy-4,6-dimethyl-2-oxo-1H-pyrrolo[2,3-b]pyridin-3(2H)-ylidene)methyl)-2,4-dimethyl-1H-pyrrole-3-carboxylate] | 35.7% | 41.7% | 18.2 µM | 22.9 µM | 24.5 µM | > 90 µM | 12.9 µM | 24 µM | 39.8 µM | – |
| Cc1nc2c(c(C)c1O)/C(=C/c1[nH]c(C)c(C(=O)NCCN3CCCCC3)c1C)C(=O)N2 [Compound I-42, (Z)-5-((5-Hydroxy-4,6-dimethyl-2-oxo-1H-pyrrolo[2,3-b]pyridin-3(2H)-ylidene)methyl)-2,4-dimethyl-N-(2-(piperidin-1-yl)ethyl)-1H-pyrrole-3-carboxamide] | 70.7% | 63.4% | 13.2 µM | 15.2 µM | 8.12 µM | 21.4 µM | 14.8 µM | 51.3 µM | 8.7 µM | – |
| Cc1nc2c(c(C)c1O)/C(=C/c1[nH]c(C)c(C(=O)N3CCCCC3)c1C)C(=O)N2 [Compound I-43, (Z)-3-((3,5-Dimethyl-4-(piperidine-1-carbonyl)-1H-pyrrol-2-yl)methylene)-5-hydroxy-4,6-dimethyl-1H-pyrrolo[2,3-b]pyridin-2(3H)-one] | 38.5% | 50.5% | 12.1 µM | 16.6 µM | 14.8 µM | > 90 µM | 9.77 µM | 14.8 µM | 26.9 µM | – |
| Cc1nc2c(c(C)c1O)/C(=C/c1[nH]c(C)c(C(=O)N3CCOCC3)c1C)C(=O)N2 [Compound I-46, (Z)-3-((3,5-Dimethyl-4-(morpholine-4-carbonyl)-1H-pyrrol-2-yl)methylene)-5-hydroxy-4,6-dimethyl-1H-pyrrolo[2,3-b]pyridin-2(3H)-one] | 71.1% | 71.2% | 30.1 µM | 57.5 µM | 14.5 µM | > 90 µM | – | > 90 µM | 12.6 µM | IC50 (DU145 (prostate cancer)): 22.9 µM; IC50 ([1]; Homo sapiens, PANC-1, 48 h): 11.5 µM; cytotoxicity compared with the reference drug sunitinib ([1]; PANC-1): greater than or equal to that of the reference drug sunitinib |
| COc1cccc2c1C(=O)c1c(O)c3c(c(O)c1C2=O)C[C@@](O)(C(=O)CO)C[C@@H]3O[C@H]1C[C@H](N)[C@H](O)[C@H](C)O1 [Doxorubicin, reference compound] | – | – | – | – | – | 0.32 µM | – | 12.1 µM | – | – |
